Test results as given in PMC11013662, “New Thiosemicarbazide Derivatives with Multidirectional Biological Action” (Molecules, 2024).
In brackets after ≈: the same amount, converted by molar mass.

How the values were obtained:
Format in all cases: cell-based
[1] = system: Staphylococcus aureus ATCC 29213; assay: Broth microdilution MIC / MBC; details: ATCC29213, S. aureus ATCC 29213
Method: (§1) The microdilution method was used to determine the MIC values of newly synthesized compounds. The antimicrobial activity of the thiosemicarbazides series was tested on ten reference bacterial strains purchased from the American Type Culture Collection (ATCC). Seven Gram-positive reference strains (S. aureus ATCC 29213, S. aureus ATCC 43300, S. aureus ATCC 6538, S. aureus ATCC 25923, S. epidermidis ATCC 12228, M. luteus ATCC 10240, and B. cereus ATCC 10876) and three Gram-negative reference bacteria (K. pneumoniae ATCC 13883, E. coli ATCC 25922, S. typhimurium ATCC 14028) were used. These bacterial strains are representatives of microorganisms that can cause the most common opportunistic infections among humans. The bacteria were grown on Mueller–Hinton agar (MHA) plates before examination. To perform the assay, all bacteria were placed in sterile saline (0.85% NaCl) to obtain a suspension of the optical density of the 0.5 McFarland standard (1.50 × 10^8 colony-forming units (CFUs)/mL). A solution of the tested compounds was prepared in dimethyl sulfoxide (DMSO) at a concentration of 50 mg/mL as a stock solution.
(§2) A 96-well microtiter plate and microbroth two-fold dilution method was used to determine the minimum inhibitory concentration (MIC) according to the EUCAST (European Committee on Antimicrobial Susceptibility Testing) reference recommendation. The solutions were then diluted with Mueller–Hinton broth (MHB, Biomaxima, Lublin, Poland) medium to obtain a solution with a basic concentration of 1000 µg/mL. Then, using the two-fold dilution method with MHB, the tested compounds were introduced into the wells of the microplate to provide a final concentration in the range of 0.49 to 1000 µg/mL. Then, 2 μL of bacterial inoculum with a density of 0.5 McFarland standard was added into each well. Each well was filled with a total volume of 100 μL. Then, microtiter plates were incubated for 18 ± 2 h at 35 °C. After incubation, the growth of bacteria was monitored by a Biotek ELx800 (Biokom, Janki, Poland) spectrophotometer at 600 nm (OD600). The MIC assays were performed in triplicate.
(§3) A negative control with MHB and without tested compounds was used. Clinically used anti-bacterial agents, cefuroxime and vancomycin, were included as positive controls for the purpose of comparison in a concentration range from 0.007 to 15.625 µg/mL.
(§4) The in vitro antimicrobial activity of the tested compounds was determined by the MIC, which was defined as the lowest concentration of the compound tested at which no visible growth of the test bacteria was observed. The MBC (the minimum bactericidal concentration) is defined as the lowest concentration of antimicrobial agent resulting in reduction in the viability of the initial bacterial inoculum by ≥99.9% on the plate. Generally, an MBC/MIC ratio less than 4 is considered bactericidal for an antimicrobial, and an MBC/MIC > 8 is indicative of bacteriostatic activity. For the MBC test, the Mueller–Hinton agar (MHA, Biomaxima, Poland) plate assay was used. MBC was determined after the broth dilution period of an MIC test has been completed. After the MIC detection, 5 µL aliquots from each well were plated on an MHA plate and grown at 35 °C overnight. The MBC values were determined by observing the first clear area on the agar plate that has no observable bacterial growth.

[2] = system: Staphylococcus epidermidis ATCC 12228; assay: Broth microdilution MIC / MBC; details: ATCC12228, S. epidermidis ATCC 12228
Method: as §1, §2, §3, §4

[3] = system: Staphylococcus aureus ATCC 25923; assay: Broth microdilution MIC / MBC; details: for MBC: ATCC25923, S. aureus ATCC 25923, read-out: MBC; for MIC: ATCC25923, S. aureus ATCC 25923, read-out: MIC
Method: as §1, §2, §3, §4

[4] = system: Micrococcus luteus ATCC 10240; assay: Broth microdilution MIC / MBC; details: ATCC10240, M. luteus ATCC 10240
Method: as §1, §2, §3, §4

[5] = system: Bacillus cereus ATCC 10876; assay: Broth microdilution MIC / MBC; details: ATCC10876, B. cereus ATCC 10876
Method: as §1, §2, §3, §4

[6] = system: Staphylococcus aureus ATCC 43300; assay: Broth microdilution MIC / MBC; details: S. aureus ATCC 43300 (MRSA); for MBC: read-out: MBC; for MIC: read-out: MIC
Method: as §1, §2, §3, §4

[7] = system: Staphylococcus aureus ATCC 6538; assay: Broth microdilution MIC / MBC; details: ATCC6538, S. aureus ATCC 6538
Method: as §1, §2, §3, §4

[8] = system: SW 620 human metastatic colon cancer cells; assay: MTT cytotoxicity assay; details: for IC50: Homo sapiens, SW 620, MTT, 72 h; for SI (Selectivity Index): IC50 for normal cell line (V79)/IC50 cancer cell line (SW 620)
Method: Both lines were obtained from American Type Culture Collection (ATCC, Rockville, MD, USA). The culture used to grow the SW 620 cells was prepared in MEM (ThermoSci, Waltham, MA, USA). The V79 cells were cultured in RPMI (Biowest SAS, Nuaillé, France) with the addition of 20 mM HEPES (Biowest, Nuaillé, France), 10% fetal bovine serum (FBS, Sigma-Aldrich, St. Louis, MO, USA), 100 µg/mL of streptomycin, and 100 U/mL of penicillin (Gibco, Grand Island, NY, USA). […] The MTT assay was used to establish the cytotoxic activity of the studied compounds. […] The process starts with the preparation of 96-well plates by placing cells at a density of 1 × 10^4 per well and incubating them for 24 h to adhere. […] Next, cells were incubated for 72 h at 37 °C with a 5% CO2. Then, a solution of MTT (0.5 mg/mL) was added to each well and plates were incubated for 4 h more in the same conditions. To dissolve precipitated formazan crystals, a mixture of DMSO and isopropanol (in a 1:1 ratio, v/v) was used. […] Cell viability was determined as the percentage of MTT reduction in the treated cells compared to the control group (unexposed cells). The relative MTT level, represented as a percentage, was calculated using the formula [A]/[B] × 100, where [A] stands for the absorbance of the treated cell sample and [B] for the absorbance of unexposed to studied compounds sample (control group).

Row | SMILES | MBC [1] | MIC [1] | MBC [2] | MIC [2] | MBC [3] | MIC [3] | MBC [4] | MIC [4] | MBC [5] | MIC [5] | MBC [6] | MIC [6] | MBC [7] | MIC [7] | IC50 [8] | SI (Selectivity Index) [8]
1 | O=C(NNC(=S)Nc1cccc(Cl)c1)c1cccc(C(F)(F)F)c1 [Compound 3a, 4-(3-Chlorophenyl)-1-(3-trifluoromethylbenzoyl)thiosemicarbazide] | 1000 µg/mL (≈ 2680 µM) | 1.95 µg/mL (≈ 5.22 µM) | 15.6 µg/mL (≈ 41.8 µM) | 1.95 µg/mL (≈ 5.22 µM) | 1000 µg/mL (≈ 2680 µM) | 1.95 µg/mL (≈ 5.22 µM) | 15.6 µg/mL (≈ 41.8 µM) | 1.95 µg/mL (≈ 5.22 µM) | 15.6 µg/mL (≈ 41.8 µM) | 1.95 µg/mL (≈ 5.22 µM) | 1000 µg/mL (≈ 2680 µM) | 3.9 µg/mL (≈ 10.4 µM) | 1000 µg/mL (≈ 2680 µM) | 1.95 µg/mL (≈ 5.22 µM) | 69 ± 12.6 µM | 0.59
2 | O=C(NNC(=S)Nc1cccc(F)c1)c1cccc(C(F)(F)F)c1 [Compound 3e, 1-(3-Trifluoromethylbenzoyl)-4-(3-fluorophenyl)thiosemicarbazide] | > 1000 µg/mL | 15.6 µg/mL (≈ 43.7 µM) | > 1000 µg/mL | 31.2 µg/mL (≈ 87.5 µM) | > 1000 µg/mL | 31.2 µg/mL (≈ 87.5 µM) | > 1000 µg/mL | 15.6 µg/mL (≈ 43.7 µM) | > 1000 µg/mL | 7.81 µg/mL (≈ 21.9 µM) | > 1000 µg/mL | 31.2 µg/mL (≈ 87.5 µM) | > 1000 µg/mL | 15.6 µg/mL (≈ 43.7 µM) | 89.9 ± 14.6 µM | –
3 | FC(F)(F)c1cccc(-c2n[nH]c(=S)n2-c2cccc(Cl)c2)c1 [Compound 4, 4-(3-Chlorophenyl)-5-(3-trifluoromethylphenyl)-2,4-dihydro-3H-1,2,4-triazole-3-thione] | – | > 1000 µg/mL | – | 500 µg/mL (≈ 1410 µM) | – | 1000 µg/mL (≈ 2810 µM) | – | 1000 µg/mL (≈ 2810 µM) | – | > 1000 µg/mL | – | > 1000 µg/mL | – | > 1000 µg/mL | > 100 µM | 1
4 | CCCCNC(=S)NNC(=O)c1cccc(C(F)(F)F)c1 [Compound 3c, 4-Butyl-1-(3-trifluoromethylbenzoyl)thiosemicarbazide] | – | > 1000 µg/mL | – | 1000 µg/mL (≈ 3130 µM) | – | 250 µg/mL (≈ 783 µM) | – | 1000 µg/mL (≈ 3130 µM) | – | > 1000 µg/mL | – | > 1000 µg/mL | – | > 1000 µg/mL | > 100 µM | 1
5 | COc1cccc(NC(=S)NNC(=O)c2cccc(C(F)(F)F)c2)c1 [Compound 3b, 1-(3-Trifluoromethylbenzoyl)-4-(3-methoxyphenyl)thiosemicarbazide] | – | > 1000 µg/mL | – | > 1000 µg/mL | – | 62.5 µg/mL (≈ 169 µM) | – | 500 µg/mL (≈ 1350 µM) | – | > 1000 µg/mL | – | > 1000 µg/mL | – | > 1000 µg/mL | > 100 µM | 1
6 | O=C(NNC(=S)Nc1ccccc1)c1cccc(C(F)(F)F)c1 [Compound 3f, 1-(3-Trifluoromethylbenzoyl)-4-(phenyl)thiosemicarbazide] | – | > 1000 µg/mL | – | 1000 µg/mL (≈ 2950 µM) | – | 62.5 µg/mL (≈ 184 µM) | – | 1000 µg/mL (≈ 2950 µM) | – | > 1000 µg/mL | – | > 1000 µg/mL | – | > 1000 µg/mL | > 100 µM | 1
7 | Cc1cccc(NC(=S)NNC(=O)c2cccc(C(F)(F)F)c2)c1 [Compound 3d, 1-(3-Trifluoromethylbenzoyl)-4-(3-methylphenyl)thiosemicarbazide] | – | > 1000 µg/mL | – | 1000 µg/mL (≈ 2830 µM) | – | 1000 µg/mL (≈ 2830 µM) | – | 1000 µg/mL (≈ 2830 µM) | – | > 1000 µg/mL | – | > 1000 µg/mL | – | > 1000 µg/mL | > 100 µM | 0.69
